{
  "source": "patent US11370847B2",
  "about": "“Single domain antibodies directed against intracellular antigens” (Singh Biotechnology, LLC, priority 2014, dated 2022)",
  "tested_on": "MDA-MB-231 xenograft",
  "details": "for Individual Tumor Measurements: listed as anti-STAT3 bacterial VHH13",
  "key": {"[1]": {"details": "Group 2, 1 mg/kg IP BID×14, day 20 (6/23/15)"}, "[2]": {"details": "Group 2, 1 mg/kg IP BID×14, day 23 (6/26/15)"}, "[3]": {"details": "Group 2, 1 mg/kg IP BID×14, day 26 (6/29/15)"}, "[4]": {"details": "Group 2, 1 mg/kg IP BID×14, day 29 (7/2/15)"}, "[5]": {"details": "Group 2, 1 mg/kg IP BID×14, day 33 (7/6/15)"}, "[6]": {"details": "Group 2, 1 mg/kg IP BID×14, day 36 (7/9/15)"}, "[7]": {"details": "Group 2, 1 mg/kg IP BID×14, day 42 (7/15/15)"}, "[8]": {"details": "Group 3, 2 mg/kg IP BID×14, day 20 (6/23/15)"}, "[9]": {"details": "Group 3, 2 mg/kg IP BID×14, day 23 (6/26/15)"}, "[10]": {"details": "Group 3, 2 mg/kg IP BID×14, day 26 (6/29/15)"}, "[11]": {"details": "Group 3, 2 mg/kg IP BID×14, day 29 (7/2/15)"}, "[12]": {"details": "Group 3, 2 mg/kg IP BID×14, day 33 (7/6/15)"}, "[13]": {"details": "Group 3, 2 mg/kg IP BID×14, day 36 (7/9/15)"}},
  "note": "Values joined by “and” are separate entries in the source; they are usually repeats but may differ in a detail not shown here. Identical values can stand only once. Like-named read-outs stand apart in the source and are kept apart here.",
  "data": [
    {"substance": "anti-STAT3 VHH13: anti-STAT3 single-domain antibody, SEQ ID NO:3; bacterially produced, referred to as SBT-100", "values": [
      {"measurement": "% mean tumor growth inhibition", "setting": "500 μg/kg bw IP QD×14", "value": 33.64, "unit": "%"},
      {"measurement": "mean tumor size (±SE) on day 14 of dosing", "setting": "500 μg/kg bw IP QD×14", "value": "118.86±15.94"},
      {"measurement": "tumor doubling time", "setting": "500 μg/kg bw IP QD×14, control 44.27 days", "value": 61.06, "unit": "days"},
      {"measurement": "% Inhibition Mean", "setting": "[1]", "value": 10.34, "unit": "%"},
      {"measurement": "% Inhibition Median", "setting": "[1]", "value": 18.61, "unit": "%"},
      {"measurement": "Tumor Mean Absolute", "setting": "[1]", "value": 82.92, "unit": "mm^3"},
      {"measurement": "Tumor Median Absolute", "setting": "[1]", "value": 80.66, "unit": "mm^3"},
      {"measurement": "Individual Tumor Measurements", "setting": "[1]", "value": "73.15 mm^3 and 80.11 mm^3 and 97.22 mm^3 and 81.21 mm^3"},
      {"measurement": "% Inhibition Mean", "setting": "[2]", "value": 52.39, "unit": "%"},
      {"measurement": "% Inhibition Median", "setting": "[2]", "value": 43.28, "unit": "%"},
      {"measurement": "Tumor Mean Absolute", "setting": "[2]", "value": 66.17, "unit": "mm^3"},
      {"measurement": "Tumor Median Absolute", "setting": "[2]", "value": 65.55, "unit": "mm^3"},
      {"measurement": "Individual Tumor Measurements", "setting": "[2]", "value": "54.54 mm^3 and 76.56 mm^3 and 79.99 mm^3 and 53.58 mm^3"},
      {"measurement": "% Inhibition Mean", "setting": "[3]", "value": 60.52, "unit": "%"},
      {"measurement": "% Inhibition Median", "setting": "[3]", "value": 50.54, "unit": "%"},
      {"measurement": "Tumor Mean Absolute", "setting": "[3]", "value": 68.07, "unit": "mm^3"},
      {"measurement": "Tumor Median Absolute", "setting": "[3]", "value": 68.80, "unit": "mm^3"},
      {"measurement": "Individual Tumor Measurements", "setting": "[3]", "value": "59.17 mm^3 and 80.34 mm^3 and 78.44 mm^3 and 54.34 mm^3"},
      {"measurement": "% Inhibition Mean", "setting": "[4]", "value": 65.12, "unit": "%"},
      {"measurement": "% Inhibition Median", "setting": "[4]", "value": 61.81, "unit": "%"},
      {"measurement": "Tumor Mean Absolute", "setting": "[4]", "value": 68.32, "unit": "mm^3"},
      {"measurement": "Tumor Median Absolute", "setting": "[4]", "value": 63.66, "unit": "mm^3"},
      {"measurement": "Individual Tumor Measurements", "setting": "[4]", "value": "57.21 mm^3 and 88.75 mm^3 and 59.90 mm^3 and 67.43 mm^3"},
      {"measurement": "% Inhibition Mean", "setting": "[5]", "value": 69.70, "unit": "%"},
      {"measurement": "% Inhibition Median", "setting": "[5]", "value": 72.26, "unit": "%"},
      {"measurement": "Tumor Mean Absolute", "setting": "[5]", "value": 67.12, "unit": "mm^3"},
      {"measurement": "Tumor Median Absolute", "setting": "[5]", "value": 56.75, "unit": "mm^3"},
      {"measurement": "Individual Tumor Measurements", "setting": "[5]", "value": "56.20 mm^3 and 99.09 mm^3 and 55.90 mm^3 and 57.30 mm^3"},
      {"measurement": "% Inhibition Mean", "setting": "[6]", "value": 78.28, "unit": "%"},
      {"measurement": "% Inhibition Median", "setting": "[6]", "value": 79.75, "unit": "%"},
      {"measurement": "Tumor Mean Absolute", "setting": "[6]", "value": 51.81, "unit": "mm^3"},
      {"measurement": "Tumor Median Absolute", "setting": "[6]", "value": 45.40, "unit": "mm^3"},
      {"measurement": "Individual Tumor Measurements", "setting": "[6]", "value": "37.13 mm^3 and 87.42 mm^3 and 53.66 mm^3 and 29.02 mm^3"},
      {"measurement": "% Inhibition Mean", "setting": "[7]", "value": 78.08, "unit": "%"},
      {"measurement": "% Inhibition Median", "setting": "[7]", "value": 76.74, "unit": "%"},
      {"measurement": "Tumor Mean Absolute", "setting": "[7]", "value": 55.98, "unit": "mm^3"},
      {"measurement": "Tumor Median Absolute", "setting": "[7]", "value": 56.29, "unit": "mm^3"},
      {"measurement": "Individual Tumor Measurements", "setting": "[7]", "value": "39.17 mm^3 and 72.18 mm^3 and 60.35 mm^3 and 52.23 mm^3"},
      {"measurement": "growth delay", "setting": "Group 2: 1 mg/kg bw IP BID×14", "value": 13.99, "unit": "days"},
      {"measurement": "mean growth inhibition", "setting": "Group 2: 1 mg/kg bw IP BID×14", "value": 78.3},
      {"measurement": "mean tumor size (±S.E.) at termination (day 42)", "setting": "Group 2: 1 mg/kg bw IP BID×14", "value": "55.98±6.94"},
      {"measurement": "mean tumor size (±SE) at day 14 of dosing", "setting": "Group 2: 1 mg/kg bw IP BID×14", "value": "67.12±10.66"},
      {"measurement": "% treatment/control", "setting": "Group 2: 1 mg/kg bw IP BID×14, (tumor stasis)", "value": "−33.75", "unit": "%"},
      {"measurement": "tumor doubling time", "setting": "Group 2: 1 mg/kg bw IP BID×14, control 20.56 days", "value": 34.54, "unit": "days"},
      {"measurement": "% Inhibition Mean", "setting": "[8]", "value": 16.19, "unit": "%"},
      {"measurement": "% Inhibition Median", "setting": "[8]", "value": 15.78, "unit": "%"},
      {"measurement": "Tumor Mean Absolute", "setting": "[8]", "value": 77.52, "unit": "mm^3"},
      {"measurement": "Tumor Median Absolute", "setting": "[8]", "value": 83.46, "unit": "mm^3"},
      {"measurement": "Individual Tumor Measurements", "setting": "[8]", "value": "56.41 mm^3 and 84.06 mm^3 and 82.87 mm^3 and 86.73 mm^3"},
      {"measurement": "% Inhibition Mean", "setting": "[9]", "value": 59.06, "unit": "%"},
      {"measurement": "% Inhibition Median", "setting": "[9]", "value": 57.27, "unit": "%"},
      {"measurement": "Tumor Mean Absolute", "setting": "[9]", "value": 56.89, "unit": "mm^3"},
      {"measurement": "Tumor Median Absolute", "setting": "[9]", "value": 49.39, "unit": "mm^3"},
      {"measurement": "Individual Tumor Measurements", "setting": "[9]", "value": "43.61 mm^3 and 85.18 mm^3 and 54.78 mm^3 and 44.01 mm^3"},
      {"measurement": "% Inhibition Mean", "setting": "[10]", "value": 77.83, "unit": "%"},
      {"measurement": "% Inhibition Median", "setting": "[10]", "value": 75.54, "unit": "%"},
      {"measurement": "Tumor Mean Absolute", "setting": "[10]", "value": 38.22, "unit": "mm^3"},
      {"measurement": "Tumor Median Absolute", "setting": "[10]", "value": 34.02, "unit": "mm^3"},
      {"measurement": "Individual Tumor Measurements", "setting": "[10]", "value": "33.13 mm^3 and 61.75 mm^3 and 34.92 mm^3 and 23.09 mm^3"},
      {"measurement": "% Inhibition Mean", "setting": "[11]", "value": 76.54, "unit": "%"},
      {"measurement": "% Inhibition Median", "setting": "[11]", "value": 74.17, "unit": "%"},
      {"measurement": "Tumor Mean Absolute", "setting": "[11]", "value": 45.95, "unit": "mm^3"},
      {"measurement": "Tumor Median Absolute", "setting": "[11]", "value": 43.07, "unit": "mm^3"},
      {"measurement": "Individual Tumor Measurements", "setting": "[11]", "value": "31.76 mm^3 and 80.69 mm^3 and 54.38 mm^3 and 16.99 mm^3"},
      {"measurement": "% Inhibition Mean", "setting": "[12]", "value": 73.69, "unit": "%"},
      {"measurement": "% Inhibition Median", "setting": "[12]", "value": 72.49, "unit": "%"},
      {"measurement": "Tumor Mean Absolute", "setting": "[12]", "value": 58.27, "unit": "mm^3"},
      {"measurement": "Tumor Median Absolute", "setting": "[12]", "value": 56.29, "unit": "mm^3"},
      {"measurement": "Individual Tumor Measurements", "setting": "[12]", "value": "34.11 mm^3 and 110.72 mm^3 and 78.47 mm^3 and 9.78 mm^3"},
      {"measurement": "% Inhibition Mean", "setting": "[13]", "value": 75.18, "unit": "%"},
      {"measurement": "% Inhibition Median", "setting": "[13]", "value": 71.22, "unit": "%"},
      {"measurement": "Tumor Mean Absolute", "setting": "[13]", "value": 59.21, "unit": "mm^3"},
      {"measurement": "Tumor Median Absolute", "setting": "[13]", "value": 64.51, "unit": "mm^3"},
      {"measurement": "Individual Tumor Measurements", "setting": "[13]", "value": "50.33 mm^3 and 89.11 mm^3 and 78.68 mm^3 and 18.71 mm^3"}
    ]}
  ]
}
